# Assay results published in patent publication US11571411B2, “Use of a bisamide derivative of malonic acid for treating allergic and other diseases in humans and animals” (PHARMENTERPRISES ALLERGY LLC, priority 2018, dated 2023).
# Experiments:
# [1] = tested on: ovalbumin-induced allergic rhinitis model; experiment: Ovalbumin-induced allergic rhinitis model in guinea pigs, nasal administration of 1% solution; format: in vivo, guinea pig; conditions: for Number of eosinophils per 1 μL of lavage fluid / Number of nose scratchings / Number of sneezes: 1% solution once intranasally
# Experimental: Int Immunopharmacol. 2013. V.17(1). P.18-25]. Guinea pigs (250-300 g) were immunized with 4× (on days 0, 7, 14 and 21) intraperitoneal administration of a mixture of ovalbumin (100 μg/pig) and aluminum hydroxide (5 mg/pig), diluted and suspended in saline. On day 28 of the study, an ovalbumin solution (60 mg/ml) was injected intranasally to the animals, 20 μl into each nostril. On day 35, after shaving the skin on the back, the animals were injected intradermally with an ovalbumin solution (200 μg/ml, 25 μl). […] On day 42 of the study, an ovalbumin solution (60 mg/ml, 20 μl/nostril) was administered intranasally. A group of sham-immunized animals was formed in order to control the formation of allergic inflammation: the pigs received an aluminum hydroxide solution (5 mg/pig) on days 0, 7, 14 and 21, a saline solution on days 28 and 35, and an ovalbumin solution (60 mg/ml, 20 μl/nostril) on day 42.
# A 1% solution of Compound I was administered to the animals intranasally once 1 hour or 3 hours before intranasal administration of ovalbumin in a volume of 10 μl/nostril. Clinical manifestations of rhinitis were assessed within 2 hours after the last administration of ovalbumin: the numbers of sneezes and nose scratchings were counted. In addition, eosinophils were counted in the nasal lavage fluid.
# [2] = tested on: histamine-induced nasal congestion model; experiment: Histamine-induced nasal congestion model in guinea pigs, nasal administration of 1% solution; format: in vivo, guinea pig; conditions: for Resistance in nasal passages, AUC: 1% solution once intranasally, AUC 0-15 minutes
# Experimental: A histamine-induced nasal congestion model in guinea pigs was performed according to the standard procedure [Slack R J1, Russell L J, Hall D A, Luttmann M A, Ford A J, Saunders K A, Hodgson S T, Connor H E, Browning C, Clark K L. Pharmacological characterization of GSK1004723, a novel, long-acting antagonist at histamine H(1) and H(3) receptors//Br J Pharmacol. 2011. V.164(6). P.1627-1641]. Guinea pigs were anesthetized, the trachea was isolated, and a cannula was inserted through it into the nasopharynx. The cannula was connected to a blood pressure sensor and artificial respirator (Ugo Basile). A 0.2% solution of histamine was inhaled for 3 minutes. The resistance to air flow in the nasal passages was assessed within 15 minutes after the end of inhalation of the histamine solution. Compound I was administered to guinea pigs once intranasally in the form of a 1% solution (10 μl/nostril) 1 hour and 4 hours before the inhalation of histamine.
# [3] = 1 hour before the last administration of ovalbumin
# [4] = 3 hours before the last administration of ovalbumin
smiles,measurement,setting,value
"O=C(CC(=O)NCCc1cnc[nH]1)NCCc1cnc[nH]1 [Compound I, N,N′-bis(2-(1H-imidazol-5-yl)ethyl)malonamide]",duration of the therapeutic effect,"[1]; 1% solution intranasally, guinea pigs, allergic rhinitis",at least 3 hours
same,Number of eosinophils per 1 μL of lavage fluid,[1]; [3],1416.9 ± 126.8*#& per 1 μL
same,Number of nose scratchings,[1]; [3],14.5 ± 4.4&
same,Number of sneezes,[1]; [3],3.1 ± 1.2#&
same,Number of eosinophils per 1 μL of lavage fluid,[1]; [4],1490.1 ± 241.0*#& per 1 μL
same,Number of nose scratchings,[1]; [4],10.7 ± 2.1#&
same,Number of sneezes,[1]; [4],3.9 ± 1.5&
same,duration of the therapeutic effect,"[2]; 1% solution intranasally, guinea pigs, histamine-induced nasal congestion",at least 4 hours
same,"Resistance in nasal passages, AUC",[2]; 1 hour before histamine inhalation,317.95 ± 24.49*& see H2O×c
same,"Resistance in nasal passages, AUC",[2]; 3 hours before histamine inhalation,281.75 ± 52.44*& see H2O×c
